According to US20250099383A1, “COMPOSITIONS AND METHODS FOR DELIVERY OF NUCLEIC ACIDS” (Poseida Therapeutics, Inc., priority 2022, published 2025):

How the values were obtained:
[1] = Physical characteristics of LNPs (particle size, PDI); format: physicochemical; conditions: for PDI DNA / Particle Size (nm) DNA: LNP with Fluc DNA, compound/DOPE/Cholesterol/DMG-PEG2000 38/50/10.0/2.0, Lipid:DNA 45:1 (w/w); for PDI RNA / Particle Size (nm) RNA: LNP with Fluc mRNA, compound/DOPE/Cholesterol/DMG-PEG2000 41.44/45.85/10/2.7, Lipid:RNA 40:1 (w/w)
Protocol: LNP compositions of the present disclosure comprising exemplary compounds of Formula (I) were prepared by combining various percentages of an exemplary compound of Formula (I), the phospholipid DOPE, the structural lipid cholesterol (Chol) and 1,2-dimyristoyl-sn-glycerol methoxypolyethylene glycol (DMG-PEG2000; Avanti Polar Lipids, Alabaster, Alabama, USA).
Individual 25 mg/ml stock solutions were prepared by solubilizing the lipids in 200-proof HPLC-grade ethanol and stock solutions were stored at −80° C. until formulated. At the time of formulation, the lipid stock solutions were briefly allowed to equilibrate to room temp and then placed on a hot plate maintained at a temperature range of 50-55° C.
A 1 mg/ml solution of the desired mRNA or DNA to be incorporated into the LNPs was added to 150 mM sodium acetate buffer (pH 5.2) to form a stock solution and kept on ice. The aqueous mRNA or DNA was then added to the lipids as shown in Table 4 or 5 and hand-mixed vigorously with a single channel pipettor.
The resultant mRNA or DNA LNP compositions were then transferred to a Repligen Float-A-Lyzer dialysis device-having a molecular weight cut off (MWCO) of 8-10 kDa (Spectrum Chemical Mfg. Corp, CA, USA) and processed by dialysis against phosphate buffered saline (PBS) (dialysate: dialysis buffer volume at least 1:200 v/v), pH 7.4 overnight at 4° C. (or alternatively room temperature for at least 4 hours), to remove the 25% ethanol and achieve a complete buffer exchange. In some experiments the LNPs were further concentrated by in an Amicon® Ultra-4 centrifugal filter unit, MWCO-30 kDa (Millipore Sigma, USA) spun at ˜4100 x g in an ultracentrifuge. The mRNA and DNA LNPs were then stored at 4° C. until further use.
LNP compositions of the present disclosure comprising mRNA or DNA encoding firefly luciferase (hereafter “Fluc”; TriLink) and COMPOUNDS 5-49 were prepared as described in Example 61 by combining one of COMPOUNDS 5-49, the phospholipid DOPE, the structural lipid cholesterol (Chol) and 1,2-dimyristoyl-sn-glycerol methoxypolyethylene glycol (DMG-PEG2000) in the percentages presented in Tables 6 and 7:
The physical characteristics of the resulting LNPs were analyzed.
A 1 mg/ml solution of the 5′-CleanCap--fLuciferase mRNA (TriLink Biotech) to be incorporated into the LNPs was added to 150 mM sodium acetate buffer (pH 5.2) to form a stock solution and kept on ice. The lipid phase was mixed with the aqueous mRNA phase inside a microfluidic chip using a NanoAssemblr® instrument (Precision Nanosystems, Vancouver, BC, Canada) according to the manufacturer's instructions to form LNP compositions comprising encapsulated mRNAs.
The average particle size diameter of the LNPs was approximately 75-150 nm.

liver cells [2] = experiment: In vivo LNP delivery of firefly luciferase mRNA to liver, bioluminescent imaging (BLI); design: species or system BALB/C mice; conditions: 0.5 mg/kg fLuciferase mRNA i.v., BLI at 4 hr; for Ave flux (p/s) n = 3: adult female BALB/C mice, LNP as in Example 66; for Mean Liver Luciferase Flux (p/s): LNP compositions of Table 25, adult female BALB/C, n=3
Protocol: Adult female BALB/C mice (n=3/group) were intravenously administered 0.5 mg/kg of 5′-CleanCap-fLuciferase mRNA (TriLink Biotech) formulated with LNP compositions as described in Example 66. One group of mice was treated with vehicle (PBS, Thermo Fisher Scientific, USA) as a negative control.
(§1) The location and extent of luciferase expression in treated and control mice were determined at 4 hr by bioluminescent imaging (BLI) of anesthetized mice using an IVIS Lumina in vivo imaging system (Perkin Elmer) according to the manufacturer's instructions. Briefly, mice were anesthetized using isoflurane in oxygen, and placed supine on a heated stage. Mice were then administered D-luciferin (Perkin-Elmer #122799) IP, and BLI was performed.
Adult female BALB/C mice (n=3/group) were intravenously administered 0.5 mg/kg of 5′-CleanCap-fLuciferase mRNA (TriLink Biotech) formulated with the LNP compositions shown in Table 25. One group of mice was treated with vehicle (PBS, Thermo Fisher Scientific, USA) as a negative control. […]

[3] = Body weight change of mice after LNP administration; format: in vivo, BALB/C mice; conditions: for Ave weight change (gram) n = 3: 24 hrs after 0.5 mg/kg LNP encapsulating firefly luciferase mRNA, adult female BALB/C mice; for % Body Weight Change 24 hr: LNP compositions of Table 25, 0.5 mg/kg fLuciferase mRNA i.v., 24 hr post-administration vs baseline
Protocol: The mice above were also monitored for changes in body weight after LNP delivery. Mice were manually weighed on a scale before LNP dosage and then weighed 24 hrs after administration of 0.5 mg/kg of LNP article encapsulating Cleancap firefly luciferase mRNA. The average of weight change n=3 is reported below.
In addition, the body weight of mice treated with the LNP compositions of Table 25 was assessed prior to intravenous administration and twenty-four hours post-administration and the body weights at baseline and post-treatment were compared. The average percentage of body weight change for each group of mice treated with each LNP composition of Table 25 is shown in Table 28. […]

liver cells [4] = experiment: In vivo LNP delivery of nanoplasmid CMV-firefly luciferase DNA to liver of juvenile mice, BLI; conditions: juvenile female BALB/C mice age 14 days; 0.25 mg/kg nanoplasmid CMV-firefly luciferase retroorbital i.v.; BLI at 4 hr
Protocol: Juvenile female BALB/C mice of age 14 days (n=4/group) were retroorbitally intravenously administered 0.25 mg/kg of nanoplasmid CMV-firefly luciferase (Nature Technology Corp) formulated with LNP compositions as described in Example 66. One group of mice was treated with vehicle (PBS, Thermo Fisher Scientific, USA) as a negative control.
as §1

liver cells [5] = experiment: In vivo LNP delivery of firefly luciferase DNA to liver of adult mice, BLI; design: species or system BALB/C mice; conditions: BLI at 24 hr; for Mean Liver Luciferase Flux (p/s): AM-TTR firefly luciferase nanoplasmid DNA 0.5 mg/kg, adult BALB/C, n=3
Protocol: as §1
as §1, with “4 hr and 48” for “4”
as §1, with “24” for “4”
One group of mice was treated with an LNP composition of the present disclosure comprising Compound No. 30 as a positive control.
as §1, with “hr for RNA delivery, or 48 hr for DNA delivery,” for “hr”

CC(C)=CCCC1=CCC(C(=O)OCCOC(=O)CCN(CCCN(C)CCCN(CCC(=O)OCCOC(=O)C2CC=C(CCC=C(C)C)CC2)CCC(=O)OCCOC(=O)C2CC=C(CCC=C(C)C)CC2)CCC(=O)OCCOC(=O)C2CC=C(CCC=C(C)C)CC2)CC1 (stereo not shown) [Compound 23]
PDI DNA [1]: 0.189
Particle Size (nm) DNA [1]: 332.8 nm
PDI RNA [1]: 0.184
Particle Size (nm) RNA [1]: 434.4 nm
Ave flux (p/s) n = 3 (liver cells [2]): 6.24E+09 p/s
Ave weight change (gram) n = 3 [3]: −5.97 gram
Ave flux (p/s) n = 4 (liver cells [4]): 3012500000 p/s

CC(C)CCCC1CCC(C(=O)OCCOC(=O)CCN(CCCN2CCN(CCCN(CCC(=O)OCCOC(=O)C3CCC(CCCC(C)C)CC3)CCC(=O)OCCOC(=O)C3CCC(CCCC(C)C)CC3)CC2)CCC(=O)OCCOC(=O)C2CCC(CCCC(C)C)CC2)CC1 (stereo not shown) [Compound 29]
PDI DNA [1]: 0.081
Particle Size (nm) DNA [1]: 317.2 nm
PDI RNA [1]: 0.197
Particle Size (nm) RNA [1]: 422.3 nm
Mean Liver Luciferase Flux (p/s) (liver cells [2]): 3.02e10 p/s
Ave flux (p/s) n = 3 (liver cells [2]): 2.44E+10 p/s
Ave weight change (gram) n = 3 [3]: −6.07 gram
% Body Weight Change 24 hr [3]: −2.4%
Ave flux (p/s) n = 4 (liver cells [4]): 9120000000 p/s

CC(C)CCCC1CCC(C(=O)OCCOC(=O)CCN(CCCN(C)CCCN(CCC(=O)OCCOC(=O)C2CCC(CCCC(C)C)CC2)CCC(=O)OCCOC(=O)C2CCC(CCCC(C)C)CC2)CCC(=O)OCCOC(=O)C2CCC(CCCC(C)C)CC2)CC1 (stereo not shown) [Compound 30]
PDI DNA [1]: 0.167
Particle Size (nm) DNA [1]: 276.9 nm
PDI RNA [1]: 0.170
Particle Size (nm) RNA [1]: 326.7 nm
Mean Liver Luciferase Flux (p/s) (liver cells [2]): 1.28e11 p/s
Ave flux (p/s) n = 3 (liver cells [2]): 3.26E+10 p/s
Ave weight change (gram) n = 3 [3]: −5.67 gram
% Body Weight Change 24 hr [3]: −2.8%
Ave flux (p/s) n = 4 (liver cells [4]): 7332500000 p/s
luciferase expression by BLI after DNA LNP, liver specific promoter (in words) (liver cells [5]; 0.5 mg/kg total DNA, nanoplasmid firefly luciferase under AM-TTR promoter, adult BALB/C mice): successfully delivered DNA to liver cells
Mean Liver Luciferase Flux (p/s) (liver cells [5]; LNP (Table 47) with Compound No. 30 prepared according to Alternative General Procedure K): 31400000 p/s
Mean Liver Luciferase Flux (p/s) (liver cells [5]; LNP (Table 47) with Compound No. 30 prepared according to Alternative General Procedure L): 29600000 p/s
Mean Liver Luciferase Flux (p/s) (liver cells [5]; LNP (Table 47) with Compound No. 30 prepared according to Example 21): 21266666.67 p/s

CC(C)=CCCC1=CCC(C(=O)OCCOC(=O)CCN(CCCN2CCN(CCCN(CCC(=O)OCCOC(=O)C3CC=C(CCC=C(C)C)CC3)CCC(=O)OCCOC(=O)C3CC=C(CCC=C(C)C)CC3)CC2)CCC(=O)OCCOC(=O)C2CC=C(CCC=C(C)C)CC2)CC1 (stereo not shown) [Compound 22]
PDI DNA [1]: 0.141
Particle Size (nm) DNA [1]: 255.5 nm
PDI RNA [1]: 0.176
Particle Size (nm) RNA [1]: 330.9 nm
Mean Liver Luciferase Flux (p/s) (liver cells [2]): 1.84e10 p/s
Ave flux (p/s) n = 3 (liver cells [2]): 9.27E+09 p/s
Ave weight change (gram) n = 3 [3]: −6.40 gram
% Body Weight Change 24 hr [3]: +1.2%

CC(C)CCCC(C)CCCC1CCC(C(=O)OCCOC(=O)CCN(CCCN2CCN(CCCN(CCC(=O)OCCOC(=O)C3CCC(CCCC(C)CCCC(C)C)CC3)CCC(=O)OCCOC(=O)C3CCC(CCCC(C)CCCC(C)C)CC3)CC2)CCC(=O)OCCOC(=O)C2CCC(CCCC(C)CCCC(C)C)CC2)CC1 (stereo not shown) [Compound 16, ((3,3′,3″,3″-((piperazine-1,4-diylbis(propane-3,1-diyl))bis(azanetriyl))tetrakis(propanoyl))tetrakis(oxy))tetrakis(ethane-2,1-diyl)tetrakis(4-(4,8-dimethylnonyl)cyclohexanecarboxylate)]
PDI DNA [1]: 0.108
Particle Size (nm) DNA [1]: 326.3 nm
PDI RNA [1]: 0.142
Particle Size (nm) RNA [1]: 354.0 nm
Ave flux (p/s) n = 3 (liver cells [2]): 3.67E+10 p/s
Ave weight change (gram) n = 3 [3]: −3.60 gram
Ave flux (p/s) n = 4 (liver cells [4]): 8905000000 p/s

CC(C)=CCC/C(C)=C/CCC1=CCC(C(=O)OCCOC(=O)CCN(CCCN2CCN(CCCN(CCC(=O)OCCOC(=O)C3CC=C(CC/C=C(\C)CCC=C(C)C)CC3)CCC(=O)OCCOC(=O)C3CC=C(CC/C=C(\C)CCC=C(C)C)CC3)CC2)CCC(=O)OCCOC(=O)C2CC=C(CC/C=C(\C)CCC=C(C)C)CC2)CC1 (stereo not shown) [Compound 9, ((3,3′,3″,3′″-((piperazine-1,4-diylbis(propane-3,1-diyl))bis(azanetriyl))tetrakis(propanoyl))tetrakis(oxy))tetrakis(ethane-2,1-diyl)tetrakis(4-((E)-4,8-dimethylnona-3,7-dien-1-yl)cyclohex-3-enecarboxylate)]
PDI DNA [1]: 0.123
Particle Size (nm) DNA [1]: 330.9 nm
PDI RNA [1]: 0.129
Particle Size (nm) RNA [1]: 314.0 nm
Mean Liver Luciferase Flux (p/s) (liver cells [2]): 4.62e10 p/s
Ave flux (p/s) n = 3 (liver cells [2]): 1.77E+10 p/s
Ave weight change (gram) n = 3 [3]: −3.03 gram
% Body Weight Change 24 hr [3]: +1.4%
